# Assay results: PMC8469090 (Pharmaceutics, 2021)
# Test system: cutaneous tumors (basal cell carcinoma, squamous cell carcinoma, melanoma, and others)
# Test: Tumor response 2 months after electrochemotherapy (RECIST 1.1)
# Conditions: for tumor complete response rate 2 months after therapy: biopsied tumors, electrochemotherapy with i.v. bleomycin 15,000 IU/m^2; for Tumor Response (All Tumors): electrochemotherapy, 2 months, RECIST 1.1
# Protocol: All patients who presented with skin cancers, recurrent disease (and/or metastatic disease) or a second primary tumor in the head and neck region were either not suitable for conventional treatments or refused them. The patients were treated with electrochemotherapy at the Department of Otorhinolaryngology and Cervicofacial Surgery, University Medical Centre Ljubljana, Slovenia or the Department of Dermatology and Allergology, University of Szeged, Hungary. […] Treatment with electrochemotherapy was previously agreed upon by a multidisciplinary board, and written informed consent was obtained from all eligible patients. The selection of patients was performed according to the NICE guidelines. The included patients were older than 18 years and presented with different histologies of cutaneous tumors (basal cell carcinoma, squamous cell carcinoma, melanoma, and others). […] In the study, altogether 25 patients were included; 8 patients younger than 65 for blood sample collection, 4 patients younger than 65 for blood and tumor sample collection and 13 patients for tumor sample collection with no age limitation.
# Electrochemotherapy was performed according to the updated standard operating procedures [24]. […] Electric pulses for electrochemotherapy were generated by a Cliniporator pulse generator (IGEA, s.r.l., Carpi, Italy) and delivered by fixed geometry electrodes, i.e., mainly electrodes with eight needles arranged in two rows of four needles each with a distance of 4 mm between the rows. In one application of electric pulses, eight pulses with a voltage of 400 V, a pulse duration of 100 µs and a frequency of 5000 Hz were applied. The number of applications was adjusted to the size of the treated tumors.
# The tumor volumes were calculated according to the SOP, i.e., a × b^2 × π/6. Tumor response 2 months after electrochemotherapy was evaluated with a clinical exam according to RECIST 1.1 criteria [25].
substance,measurement,setting,value
bleomycin,tumor complete response rate 2 months after therapy,BCC (8/9),89%
same,tumor complete response rate 2 months after therapy,SCC (4/5),80%
same,Tumor Response (All Tumors),"Table 3 patient 1 (BCC, 3 lesions, 24,000 IU)","1 CR, 2 PR"
same,Tumor Response (All Tumors),"Table 3 patient 5 (BCC, 5 lesions, 27,000 IU)","4 CR, 1 SD"
same,Tumor Response (All Tumors),"Table 3 patient 7 (BCC, 5 lesions, 24,000 IU)",5 CR
same,Tumor Response (All Tumors),"Table 3 patient 11 * (SCC, 6 lesions, 30,000 IU)",6 CR
same,Tumor Response (All Tumors),"Table 3 patient 15 * (Melanoma, 3 lesions, 29,100 IU)",3 CR
same,Tumor Response (All Tumors),"Table 3 patient 17 (Porocarcinoma, 2 lesions, 29,850 IU)",2 CR
same,Tumor Response (All Tumors),"Table 3 patient 19 (BCC, 16 lesions, 21,900 IU)","11 CR, 5 PR"
